According to patent US20240279302A1, “OLFACTORY RECEPTOR EXPRESSING METHOD AND RESPONSE MEASUREMENT METHOD” (Kao Corporation, priority 2021, published 2024):
“Also recorded” adds a separate entry of the source.

Key:
[1] = target: T1, consensus 10A4 R262Q variant (Homo sapiens, UniProt Q9H209, A244S/A267T/E4G/H132R/H139R/I140R/I51T/K296S/K303R/L305V/Q237K/Q264R/R262Q/S141A/S155P/S269P/S279Y/S293L/S312P/T22S/V195L); test: Luciferase assay (odorant response); assay type: cell-based
T1 construct: expressed in transfected cells; host or cells: HEK293
Protocol: (§1) For luciferase assay, a reaction solution was prepared according to composition shown in Table 4, left standing for 20 minutes in a clean bench, and then added to each well of a 96-well plate (Becton, Dickinson and Company). Subsequently, 100 μL of HEK293 cells suspended in DMEM (Nacalai Tesque, Inc.) was inoculated at 2×10^5 cells/cm^2 to each well, and cultured for 24 hours in an incubator kept at 37° C. and 5% CO2. Cells expressing no olfactory receptor (Mock) were provided as a control.
(§2) The medium was removed from the cultures prepared in 2), and 75 μL of a test substance solution with a predetermined concentration prepared with a fresh medium was added thereto. The cells were cultured for 4 hours in a CO2 incubator and the luciferase gene was sufficiently expresses in the cells. Luciferase activity was measured using Dual-Glo™ luciferase assay system (Promega Corp.) in accordance with the operation manual of the product. A luminescence value derived from firefly luciferase induced by test substance stimulation in each well of the 96-well plate was divided by a luminescence value derived from Renilla luciferase to calculate a signal, which was then used in analysis. The signal under each transfection condition was normalized with the signal under a stimulation-free condition defined as 0% and the signal by stimulation with 30 μM forskolin defined as 100%, and used as a response (%) in analysis.
(§3) Whether responsiveness coinciding with difference among individuals in sensory evaluation would be obtained was tested by applying the consensus design (c) to each human olfactory receptor newly identified in FIGS. 5 and 6, and then introducing an amino acid sequence reported to have difference among individuals (FIG. 7).

[2] = target: T2, consensus OR10A2 variant of H43R, H207R, and K258T (Homo sapiens, UniProt Q9H208, A297G/C30S/G257S/H207R/H43R/I240V/K258T/M268V/N222H/T20I/V292F); test: Luciferase assay (odorant response); assay type: cell-based
T2 construct: expressed in transfected cells; host or cells: HEK293
Protocol: as §1, §2, §3

[3] = target: T3, consensus 10A4, (c) Ortholog (Homo sapiens, UniProt Q9H209, A244S/A267T/E4G/H132R/H139R/I140R/I51T/K296S/K303R/L305V/Q237K/Q264R/S141A/S155P/S269P/S279Y/S293L/S312P/T22S/V195L); test: Luciferase assay (odorant response); assay type: cell-based
T3 construct: expressed in transfected cells; host or cells: HEK293
Protocol: as §1, §2

[4] = target: T4, consensus 10A2, (c) Ortholog (Homo sapiens, UniProt Q9H208, A297G/C30S/G257S/H207R/I240V/M268V/N222H/T20I/V292F); test: Luciferase assay (odorant response); assay type: cell-based
T4 construct: expressed in transfected cells; host or cells: HEK293
Protocol: as §1, §2

[5] = target: T5, consensus olfactory receptor 5C1 with N5K mutation (Homo sapiens, UniProt Q8NGR4, A10R/A30T/A50V/C35F/G245C/H231R/H313C/I178V/I206V/K177E/L166F/L6F/M255L/M47V/M55V/N23D/N5K/Q142R/Q307R/R131G/R8W/S194N/S238R/S288A/T114A/T219A/T34I/V17I/V235A); test: Luciferase assay (odorant response); assay type: cell-based; settings: versus consensus 5C1
T5 construct: expressed in transfected cells; host or cells: HEK293
Protocol: as §1, §2, §3

6Y1 = settings: as disclosed in Non Patent Literature 2; cited from earlier work
[6] = target: T6, OR2A25 (original human receptor) (Homo sapiens, UniProt A4D2G3); test: Luciferase assay (odorant response); assay type: cell-based
T6 construct: expressed in transfected cells; host or cells: HEK293
Protocol: as §1, §2

[7] = target: T7, consensus olfactory receptor 6B2 with R122C and C179R mutations (Homo sapiens, UniProt Q6IFH4, C161Y/C179R/C234R/E83D/G146A/H133Q/I215V/I48T/L135I/L142V/L17F/L255M/L256I/M157V/P138T/Q268R/Q89R/R122C/S64G/T78I/V136M/V15L/V166A/V250I/V281L/W219G); test: Luciferase assay (odorant response); assay type: cell-based; settings: versus consensus 6B2
T7 construct: expressed in transfected cells; host or cells: HEK293
Protocol: as §1, §2, §3

T3 sequence (Q9H209 1-315 with the stated changes): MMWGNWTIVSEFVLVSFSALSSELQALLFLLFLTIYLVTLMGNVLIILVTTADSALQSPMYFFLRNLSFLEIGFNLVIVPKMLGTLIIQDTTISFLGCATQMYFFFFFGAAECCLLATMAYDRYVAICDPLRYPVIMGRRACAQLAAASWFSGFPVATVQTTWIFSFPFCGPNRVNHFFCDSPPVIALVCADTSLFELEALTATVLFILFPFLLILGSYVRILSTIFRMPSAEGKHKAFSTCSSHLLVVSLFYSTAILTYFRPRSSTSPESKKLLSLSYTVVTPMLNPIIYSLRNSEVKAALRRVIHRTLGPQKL
T2 sequence (Q9H208 with tags, fused parts or gaps with the stated changes): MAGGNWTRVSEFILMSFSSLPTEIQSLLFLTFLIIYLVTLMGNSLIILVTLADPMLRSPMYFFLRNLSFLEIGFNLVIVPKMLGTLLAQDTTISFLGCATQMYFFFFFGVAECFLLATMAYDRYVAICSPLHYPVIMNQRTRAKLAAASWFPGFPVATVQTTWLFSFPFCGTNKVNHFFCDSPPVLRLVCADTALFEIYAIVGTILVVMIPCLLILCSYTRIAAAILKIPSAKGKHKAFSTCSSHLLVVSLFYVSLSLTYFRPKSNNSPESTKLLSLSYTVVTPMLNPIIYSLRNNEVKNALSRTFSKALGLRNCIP
T4 sequence (Q9H208 with tags, fused parts or gaps T20I/C30S/H207R/N222H/I240V/G257S/M268V/V292F/A297G): as the sequence (Q9H208 with tags, fused parts or gaps with the stated changes) above, with R57H, T272K counted along it
T6 sequence (A4D2G3 whole entry): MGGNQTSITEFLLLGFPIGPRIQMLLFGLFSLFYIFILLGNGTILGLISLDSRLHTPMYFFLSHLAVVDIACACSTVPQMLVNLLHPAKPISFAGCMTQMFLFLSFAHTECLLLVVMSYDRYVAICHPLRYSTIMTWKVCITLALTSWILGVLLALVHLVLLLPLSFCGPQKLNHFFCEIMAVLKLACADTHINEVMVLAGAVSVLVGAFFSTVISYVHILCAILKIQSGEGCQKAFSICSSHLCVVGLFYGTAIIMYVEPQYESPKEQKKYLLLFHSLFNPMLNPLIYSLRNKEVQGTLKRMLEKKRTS
T5 sequence (Q8NGR4 1-320 with the stated changes): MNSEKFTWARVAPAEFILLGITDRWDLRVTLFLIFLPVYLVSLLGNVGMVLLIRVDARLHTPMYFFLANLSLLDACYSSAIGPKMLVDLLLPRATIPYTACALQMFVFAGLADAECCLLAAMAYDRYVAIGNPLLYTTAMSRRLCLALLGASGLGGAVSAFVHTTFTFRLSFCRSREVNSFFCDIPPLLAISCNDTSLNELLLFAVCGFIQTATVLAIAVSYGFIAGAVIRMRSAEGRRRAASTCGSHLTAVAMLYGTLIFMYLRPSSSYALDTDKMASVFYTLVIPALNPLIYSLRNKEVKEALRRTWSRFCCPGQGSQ
T7 sequence (Q6IFH4 with tags, fused parts or gaps with the stated changes): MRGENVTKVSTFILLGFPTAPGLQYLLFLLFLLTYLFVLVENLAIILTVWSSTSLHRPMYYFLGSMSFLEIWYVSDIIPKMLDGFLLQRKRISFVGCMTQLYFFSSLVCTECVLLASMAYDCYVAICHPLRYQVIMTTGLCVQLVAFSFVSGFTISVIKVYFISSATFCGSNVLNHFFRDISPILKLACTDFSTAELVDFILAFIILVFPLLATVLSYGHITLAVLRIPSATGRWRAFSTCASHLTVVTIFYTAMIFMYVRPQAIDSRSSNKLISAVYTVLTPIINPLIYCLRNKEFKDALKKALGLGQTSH

CCCCCCC/C=C/C=O [(E)-2-decenal]
responsiveness of the 10A4 R262Q variant [1]: no change in responsiveness | responsiveness of the 10A2 variant of H43R, H207R, and K258T [2]: markedly low responsiveness | response of consensus 10A4 [3]: can recognize; also recorded: lower responsiveness | response of consensus 10A2 [4]: can recognize

CCCCCCCCC/C=C/C=O [(E)-2-dodecenal]
responsiveness of the 10A4 R262Q variant [1]: no change in responsiveness | responsiveness of the 10A2 variant of H43R, H207R, and K258T [2]: markedly low responsiveness | response of consensus 10A4 [3]: can recognize; also recorded: lower responsiveness | response of consensus 10A2 [4]: can recognize

CC(C)=CCCC(C)=CC=O [citral]
responsiveness of consensus 5C1 with N5K [5]: markedly reduced

CC(=O)C(C)=O [diacetyl]
response of 6Y1 (6Y1): responds

CC(C)=CCC/C(C)=C/CO [geraniol]
response of 2A25 (ranking of affinity for 2 agonists) [6]: responded to geraniol at a lower concentration in comparison with geranyl formate

CC(C)C=O [isobutyraldehyde]
responsiveness of consensus 6B2 with R122C and C179R [7]: markedly reduced
